These results are taken from US10323038B2, “Pyrazole compounds and methods of making and using same” (ABIDE THERAPEUTICS, INC., priority 2015, dated 2019).

A value given as a limit tells only on which side of the number the result lay.

By IC50 is commonly meant the concentration needed to halve the response being measured.

The target in test [1] is FAAH (Mus musculus (Mouse), UniProt O08914). Put plainly: In vitro competitive activity-based protein profiling, FAAH (mouse). The test is classed as biochemical. Particulars: for inhibition at 1 µM: read-out: FAAH % inh. 1 μM (mouse). Summed up: (§1)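 Residual MAGL and FAAH activity came from in-gel fluorescence after competition between inhibitor (30 min preincubation, 37° C) and the activity-based probe FP-Rh or HT-01 (30 min, 37° C) in mouse or human tissue or cell proteomes.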
Chain of FAAH (O08914 whole entry): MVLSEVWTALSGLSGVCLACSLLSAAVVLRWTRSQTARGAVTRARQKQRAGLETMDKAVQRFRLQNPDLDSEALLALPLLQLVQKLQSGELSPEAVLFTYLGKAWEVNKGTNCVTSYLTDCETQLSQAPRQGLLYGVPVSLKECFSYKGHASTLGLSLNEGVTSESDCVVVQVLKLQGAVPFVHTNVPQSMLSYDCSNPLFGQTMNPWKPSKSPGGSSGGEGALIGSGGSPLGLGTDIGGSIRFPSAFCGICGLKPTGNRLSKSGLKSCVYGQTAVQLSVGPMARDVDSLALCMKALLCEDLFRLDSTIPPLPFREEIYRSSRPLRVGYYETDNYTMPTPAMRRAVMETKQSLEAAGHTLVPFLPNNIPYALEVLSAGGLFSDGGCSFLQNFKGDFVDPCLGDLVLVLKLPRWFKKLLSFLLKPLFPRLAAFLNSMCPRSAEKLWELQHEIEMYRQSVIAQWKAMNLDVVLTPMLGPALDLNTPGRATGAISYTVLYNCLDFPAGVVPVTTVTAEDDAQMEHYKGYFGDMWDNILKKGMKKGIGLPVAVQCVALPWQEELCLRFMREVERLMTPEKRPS

Test [2] addresses MAGL (Mus musculus (Mouse), UniProt O35678). Put plainly: In vitro competitive activity-based protein profiling, MAGL (mouse). The test is classed as biochemical. The conditions noted are these: for inhibition at 1 µM: read-out: MAGL % inh. 1 μM (mouse). Summed up: as §1

Chain of MAGL (O35678 whole entry): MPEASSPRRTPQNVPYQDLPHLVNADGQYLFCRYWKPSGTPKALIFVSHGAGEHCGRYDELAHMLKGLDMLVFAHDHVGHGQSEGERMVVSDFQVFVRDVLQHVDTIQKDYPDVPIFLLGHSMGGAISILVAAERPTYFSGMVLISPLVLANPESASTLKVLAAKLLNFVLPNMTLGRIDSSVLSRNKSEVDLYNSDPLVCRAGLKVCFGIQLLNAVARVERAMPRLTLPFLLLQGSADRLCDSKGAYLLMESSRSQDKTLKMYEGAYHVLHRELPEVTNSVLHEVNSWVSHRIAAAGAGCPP

Consider `CC(=O)N(C)c1cnn(C(=O)N2CC3CN(Cc4cc(Cl)cc(Cl)c4)CC3C2)c1` (centres unmarked) [Example 105, N-(1-(5-(3,5-dichlorobenzyl)octahydropyrrolo[3,4-c]pyrrole-2-carbonyl)-1H-pyrazol-4-yl)-N-methylacetamide], for which, in test [1], the 50% inhibitory concentration (IC50) was at most 100 nM and the inhibition at 1 µM was at least 75%. Also, in test [2], the IC50 is at most 100 nM and the inhibition at 1 µM is at least 75%.
For the compound `CC(=O)N(C)c1cnn(C(=O)N2CC3CN(Cc4cc(C(F)(F)F)ccc4Cl)CC3C2)c1` (centres unmarked) [Example 106, N-(1-(5-(2-chloro-5-(trifluoromethyl)benzyl)octahydropyrrolo[3,4-c]pyrrole-2-carbonyl)-1H-pyrazol-4-yl)-N-methylacetamide], the inhibition at 1 µM in test [1] and in test [2] was at least 75% in each case.
Take `CC(=O)N(C)c1cnn(C(=O)N2CC3CN(Cc4cccc(Cl)c4Cl)CC3C2)c1` (centres unmarked) [Example 107, N-(1-(5-(2,3-dichlorobenzyl)octahydropyrrolo[3,4-c]pyrrole-2-carbonyl)-1H-pyrazol-4-yl)-N-methylacetamide]: in test [1], the IC50 is at most 100 nM and the inhibition at 1 µM is at least 75%. Besides, in test [2], the IC50 is at most 100 nM and the inhibition at 1 µM was at least 75%.
With `CC(=O)N(C)c1cnn(C(=O)N2CC3CN(Cc4cc(C)cc(C)c4)CC3C2)c1` (centres unmarked) [Example 108, N-(1-(5-(3,5-dimethylbenzyl)octahydropyrrolo[3,4-c]pyrrole-2-carbonyl)-1H-pyrazol-4-yl)-N-methylacetamide], in test [1], the IC50 was at most 100 nM and the inhibition at 1 µM was at least 75%. Moreover, in test [2], the half-maximal inhibitory concentration (IC50) fell in the range of 100 to 1000 nM and the inhibition at 1 µM was at least 75%.
In the case of `CC(=O)N(C)c1cnn(C(=O)N2CC3CN(Cc4cc(Cl)ccc4Cl)CC3C2)c1` (centres unmarked) [Example 109, N-(1-(5-(2,5-dichlorobenzyl)octahydropyrrolo[3,4-c]pyrrole-2-carbonyl)-1H-pyrazol-4-yl)-N-methylacetamide], in test [1], the 50% inhibitory concentration (IC50) is at most 100 nM and the inhibition at 1 µM is at least 75%. Further, in test [2], the IC50 was at most 100 nM and the inhibition at 1 µM is at least 75%.
Regarding `CC(=O)N(C)c1cnn(C(=O)N2CC3CN(Cc4cc(Cl)cc(N5CCCC5)c4)CC3C2)c1` (centres unmarked) [Example 110, N-(1-(5-(3-chloro-5-(pyrrolidin-1-yl)benzyl)octahydropyrrolo[3,4-c]pyrrole-2-carbonyl)-1H-pyrazol-4-yl)-N-methylacetamide], in test [1], the IC50 is at most 100 nM and the inhibition at 1 µM is at least 75%. Further, in test [2], the half-inhibitory concentration (IC50) was at most 100 nM and the inhibition at 1 µM is at least 75%.
Turning to `CC(=O)N(C)c1cnn(C(=O)N2CC3CN(Cc4c(Cl)cccc4Cl)CC3C2)c1` (centres unmarked) [Example 111, N-(1-(5-(2,6-dichlorobenzyl)octahydropyrrolo[3,4-c]pyrrole-2-carbonyl)-1H-pyrazol-4-yl)-N-methylacetamide], in test [1], the half-maximal inhibitory concentration (IC50) is at most 100 nM and the inhibition at 1 µM is at least 75%. In test [2], the IC50 is at most 100 nM and the inhibition at 1 µM is at least 75%.
`CC(=O)N(C)c1cnn(C(=O)N2CC3CN(Cc4cc(N5CCCC5)cc(C(F)(F)F)c4)CC3C2)c1` (centres unmarked) [Example 112, N-methyl-N-(1-(5-(3-(pyrrolidin-1-yl)-5-(trifluoromethyl)benzyl)octahydropyrrolo[3,4-c]pyrrole-2-carbonyl)-1H-pyrazol-4-yl)acetamide]: in test [1], the IC50 is at most 100 nM and the inhibition at 1 µM is at least 75%. Besides, in test [2], the IC50 is at most 100 nM and the inhibition at 1 µM is at least 75%.
As to `CC(=O)N(C)c1cnn(C(=O)N2CC3CN(Cc4ccc(Cl)cc4Cl)CC3C2)c1` (centres unmarked) [Example 113, N-(1-(5-(2,4-dichlorobenzyl)octahydropyrrolo[3,4-c]pyrrole-2-carbonyl)-1H-pyrazol-4-yl)-N-methylacetamide], in test [1], the half-inhibitory concentration (IC50) was at most 100 nM and the inhibition at 1 µM was at least 75%. In addition, in test [2], the IC50 was at most 100 nM and the inhibition at 1 µM was at least 75%.
Regarding `CC(=O)N(C)c1cnn(C(=O)N2CC3CN(Cc4cc(N5CCOCC5)cc(C(F)(F)F)c4)CC3C2)c1` (centres unmarked) [Example 114, N-methyl-N-(1-(5-(3-morpholino-5-(trifluoromethyl)benzyl)octahydropyrrolo[3,4-c]pyrrole-2-carbonyl)-1H-pyrazol-4-yl)acetamide], in test [1], the half-maximal inhibitory concentration (IC50) is at most 100 nM and the inhibition at 1 µM is at least 75%. Also, in test [2], the IC50 is at most 100 nM and the inhibition at 1 µM is at least 75%.
In the case of `CC(=O)N(C)c1cnn(C(=O)N2CC3CN(Cc4ccc(C)cc4Cl)CC3C2)c1` (centres unmarked) [Example 115, N-(1-(5-(2-chloro-4-methylbenzyl)octahydropyrrolo[3,4-c]pyrrole-2-carbonyl)-1H-pyrazol-4-yl)-N-methylacetamide], in test [1], the IC50 was at most 100 nM and the inhibition at 1 µM is at least 75%. Also, in test [2], the IC50 is at most 100 nM and the inhibition at 1 µM is at least 75%.
Regarding `CC(=O)N(C)c1cnn(C(=O)N2CC3CN(Cc4cc(C(F)(F)F)cc(C(F)(F)F)c4)CC3C2)c1` (centres unmarked) [Example 116, N-(1-(5-(3,5-bis(trifluoromethyl)benzyl)octahydropyrrolo[3,4-c]pyrrole-2-carbonyl)-1H-pyrazol-4-yl)-N-methylacetamide], in test [1], the IC50 is at most 100 nM and the inhibition at 1 µM is at least 75%. In test [2], the IC50 was at most 100 nM and the inhibition at 1 µM is at least 75%.
Regarding `CC(=O)N(C)c1cnn(C(=O)N2CC3CN(Cc4cccc(C(F)(F)F)c4)CC3C2)c1` (centres unmarked) [Example 117, N-methyl-N-(1-(5-(3-(trifluoromethyl)benzyl)octahydropyrrolo[3,4-c]pyrrole-2-carbonyl)-1H-pyrazol-4-yl)acetamide], in test [1], the IC50 was at most 100 nM and the inhibition at 1 µM is at least 75%. Also, in test [2], the IC50 was at most 100 nM and the inhibition at 1 µM is at least 75%.
Take `CC(=O)N(C)c1cnn(C(=O)N2CC3CN(Cc4cc(Cl)cc(N5CC6COCC6C5)c4)CC3C2)c1` (centres unmarked) [Example 118, N-(1-(5-(3-chloro-5-(tetrahydro-1H-furo[3,4-c]pyrrol-5(3H)-yl)benzyl)octahydropyrrolo[3,4-c]pyrrole-2-carbonyl)-1H-pyrazol-4-yl)-N-methylacetamide]: the IC50 in test [1] and in test [2] was at most 100 nM each time. For the same compound, the inhibition at 1 µM in test [1] and in test [2] was at least 75% in each case.
In the case of `CC(=O)N(C)c1cnn(C(=O)N2CC3CN(Cc4cccc(N5CCCC5)c4)CC3C2)c1` (centres unmarked) [Example 119, N-methyl-N-(1-(5-(3-(pyrrolidin-1-yl)benzyl)octahydropyrrolo[3,4-c]pyrrole-2-carbonyl)-1H-pyrazol-4-yl)acetamide], in test [1], the IC50 was at most 100 nM and the inhibition at 1 µM was at least 75%. In test [2], the IC50 was at most 100 nM and the inhibition at 1 µM is at least 75%.
Consider `CC(=O)N(C)c1cnn(C(=O)N2CC3CN(Cc4cc(Cl)cc(N5CCN(C6CC6)CC5)c4)CC3C2)c1` (centres unmarked) [Example 120, N-(1-(5-(3-chloro-5-(4-cyclopropylpiperazin-1-yl)benzyl)octahydropyrrolo[3,4-c]pyrrole-2-carbonyl)-1H-pyrazol-4-yl)-N-methylacetamide], for which, in test [1], the IC50 is at most 100 nM and the inhibition at 1 µM is at least 75%. In test [2], the IC50 is at most 100 nM and the inhibition at 1 µM was at least 75%.
